From patent publication US20100247579A1, “THERAPEUTIC AGENT FOR CANCER” (priority 2007, published 2010)

Assays:
Type in all cases: in vivo, C57BL/6 mice
CD3e^+ T cells in blood [1] = experiment: T cell count in blood after CPA and T cell transfer, syngeneic tumor model C57BL/6-hB16F10; conditions: day 6 after cell administration; group A defined as 100%; CPA 100 mg/kg i.p. day 4
Protocol: Evaluation of the lymphocyte count was effected by measuring the leukocyte count and the T cell count contained in the blood sample collected from the mouse tail vein. A volume of 22 μL of the blood was collected into a 0.5 mL tube containing 3 μL of heparin sodium (manufactured by Mitsubishi Wellpharma Inc.) per one mouse. An aliquote of 15 μL was taken from the blood sample, added to a mixed solution of 14 μL of Flow-Count (manufactured by Beckman Coulter Inc.) and 0.5 μL of hamster anti-mouse CD3e FITC (manufactured by eBioscience Inc.), and the mixture was treated for 15 minutes. Thereafter, the erythrocytes were hemolysed with a low isotonic solution, and subjected to flow cytometry to calculate the rate of T cells and the recovery rate of T cells, with the CD3e^+ cells being as the T cells. […] […] Moreover, the recovery rate of the T cells was determined to be a ratio of the number of the T cells on day 4 after the cell administration relative to the number of the T cells immediately before the cell administration.
In a similar manner to item (5) of Example 1, expansion of mouse T cell population was carried out.
Using the mouse T cells which had been expanded in item (1) of Example 11, separation of the naive T-like cells and the effector T-like cells was performed similarly to item (2) of Example 10. […]

hB16F10 [2] = experiment: Antitumor activity (tumor size) after CPA and T cell transfer, syngeneic tumor model C57BL/6-hB16F10; conditions: day 11 after tumor inoculation; CPA 100 mg/kg i.p. day 4
Protocol: On the next day, individual mouse T cells prepared in item (2) of Example 11 was prepared with an RPMI 1640 medium to a density of 3.75×10^8 cells/mL, and the naive T-like cells and the effector T-like cells in 0.2 mL each were administered via the tail veins to each individual of group C and group D, respectively. In addition, the RPMI 1640 medium was administered to each individual of group A and group B in 0.2 mL each via the tail veins.
However, the tumor size was determined on days 11 and 13 after the tumor inoculation.

CD3e^+ T cells in blood [3] = experiment: T cell count in blood after MMC and T cell transfer, syngeneic tumor model C57BL/6-hB16F10
Protocol: In a similar manner to item (5) of Example 1, expansion of mouse T cells was carried out, however, the human CH-296 was not used, and the cells on day 6 of culture were collected. The cells were subjected to each experiment.
The cells obtained in item (1) of Example 10 were collected to take a required amount, and centrifuged at 500×g for 5 minutes at room temperature to remove the supernatant. Thereafter, the cells were suspended in DPBS containing 0.5% BSA and 2 mM disodium ethylenediaminetetraacetate (hereinafter referred to as 0.5% BSA/DPBS) to a density of 1.11×10^8 cells/mL. CD62L ([…]) microbeads (mouse) (manufactured by MACS) were added to the cell solution in 10 μL per cell count of 1×10^7 cells, and incubated for 15 minutes while stirring sometimes in a dark place at 4° C. Then, to the cell solution was added 1 mL of 0.5% BSA/DPBS per cell count of 1×10^7 cells, and the mixture was centrifuged at 500×g for 5 minutes at room temperature to remove the supernatant. After that, 0.5 mL of 0.5% BSA/DPBS per cell count of 1×10^8 cells was added thereto, suspended sufficiently, and allowed to stand on ice to afford a CD62L microbeads target cell solution. An LS column (manufactured by MACS, hereinafter referred to as a separation column) was provided to a VarioMACS (trademark) separator (manufactured by MACS, hereinafter referred to as a separation apparatus) and rinsed with 3 mL of 0.5% BSA/DPBS. The CD62L microbeads-labeled cell solution was added to the column for elution and further rinsed with 9 mL of 0.5% BSA/DPBS to collect an eluate, thereby obtaining CD62L^− cells as effector T-like cells. The column was removed from the separation apparatus, and CD62L^+ cells were collected as naive T-like cells by extrusion with a plunger attached to the separation apparatus after addition of 5 mL of a buffer.
Hair removal of about 9 cm^2 in the right inguina of 7-week old female C57BL/6 mice was effected under anesthesia, and 0.1 mL of hB16F10 suspended in an RPMI 1640 medium to a density of 4×10^6 cells/mL was subcutaneously administered to the mice. […]

hB16F10 [4] = experiment: Antitumor activity (tumor size) after MMC and T cell transfer, syngeneic tumor model C57BL/6-hB16F10; conditions: day 14 after tumor inoculation; product of major and minor diameter
Protocol: Hair removal of about 9 cm^2 in the right inguina of 7-week old female C57BL/6 mice was effected under anesthesia, and 0.1 mL of hB16F10 suspended in an RPMI 1640 medium to a density of 4×10^6 cells/mL was subcutaneously administered to the mice. Thereafter, group settings were carried out as follows. Group A was set to an untreated group, group B was set to an MMC alone administration group, group C was set to a combinatorial MMC and naive T-like cell administration group, and group D was set to a combinatorial MMC and effector T-like cell administration group. On days 3 and 4 after tumor inoculation, 0.2 mL of a saline (manufactured by Otsuka Pharmaceutical Co., Ltd.) was intraperitoneally administered to group A and the MMC at a dose of 2 mg/kg was intraperitoneally administered to other groups. On day 6 after the tumor inoculation, individual mouse T cells prepared in item (2) of Example 10 were prepared with an RPMI 1640 medium to a density of 5×10^8 cells/mL. The naive T-like cells and the effector T-like cells in 0.2 mL each were respectively administered to each individual of group C and group D via the tail veins. […]
In order to assay the antitumor activity in the evaluation system performed in item (3) of Example 10, a tumor size in each individual on day 14 after the tumor inoculation was determined with an electronic caliper. […]

O=P1(N(CCCl)CCCl)NCCCO1 (stereo not drawn) [CPA, cyclophosamide]
Rate of T cells (%) (CD3e^+ T cells in blood [1]): 52.2%
Tumor Size (mm^2) On day 11 (hB16F10 [2]): 32.6 mm^2

CO[C@@]12[C@H](COC(N)=O)C3=C(C(=O)C(C)=C(N)C3=O)N1C[C@@H]1N[C@@H]12 [MMC, mitomycin C]
Rate of T Cells On Day 4 after Cell Administration (CD3e^+ T cells in blood [3]; group A (untreated) defined as 100%, MMC 2 mg/kg i.p. days 3 and 4, cells via tail vein day 6): 118.2%
Rate of T Cells Immediately before Cell Administration (CD3e^+ T cells in blood [3]; group A (untreated) defined as 100%, MMC 2 mg/kg i.p. on days 3 and 4 after tumor inoculation): 84.1%
Recovery Rate of T Cells (CD3e^+ T cells in blood [3]; ratio of T cell number on day 4 after cell administration to number immediately before): 1.4
Tumor Size (mm^2) (hB16F10 [4]): 82.5 mm^2
